Series [1] in a line: Inhibition of SARS-CoV NSP13 helicase in presence of DT20Cy3 and ReleaseBHQ by FRET-based assay. Also on record: species or system Severe acute respiratory syndrome-related coronavirus.
Series [2] can be described thus: Inhibition of SARS-CoV papain-like protease (723 to 1041 residues) expressed in Escherichia coli BL21(DE3) using Arg-Leu-Arg-Gly-Gly-AMC as substrate by fluorescence method. Also on record: species or system Severe acute respiratory syndrome-related coronavirus.
Series [3] can be described thus: Inhibition of SARS-CoV 3C-like protease (9970 to 10887 residues) expressed in Escherichia coli BL21(DE3) CodonPlus-RIL cells using DABCYL-KTSAVLQSGFRKME-EDANS as substrate by FRET assay. Also noted: species or system Severe acute respiratory syndrome-related coronavirus.
Series [4] concerns the target T1, mRNA cap guanine-N(7) methyltransferase (Homo sapiens, UniProt O43148).
Series [5] deals with T1, mRNA cap guanine-N(7) methyltransferase. The source holds these as a separate data set.
The test system of series [6] is guanine-N7 methyltransferase (human versus SARS coronavirus WHU). The series is described as follows: in vitro.
For series [7], the system named is guanine-N7 methyltransferase (human versus SARS-CoV). The series is described as follows: in vitro.
The nature of series [8]: Inhibition of MERS-CoV NSP13 helicase measured after 5 min by FRET-based assay. Also noted: species or system Middle East respiratory syndrome-related coronavirus.
A short description of series [9]: Inhibition of MERS-CoV (KOR/KNIH/002_05_2015) 3C-like protease expressed in Escherichia coli BL21(DE3) using Dabcyl-KTSAVLQSGFRKME-Edans as substrate by fluorometric assay. Also on record: species or system Middle East respiratory syndrome-related coronavirus.
A short description of series [10]: Inhibition of SARS-CoV 3C-like protease expressed in Escherichia coli BL21(DE3) using Dabcyl-KTSAVLQSGFRKME-Edans as substrate by fluorometric assay. Also noted: species or system Severe acute respiratory syndrome-related coronavirus.
Series [11] is described as follows: Inhibition of SARS-CoV N-terminal His-tagged 3C-like protease expressed in Escherichia coli GJ1158 using 2-aminobenzoyl-SVTLQSG-Tyr(NO2)-R as substrate by quenched-FRET assay. Also on record: species or system Severe acute respiratory syndrome-related coronavirus.
The nature of series [12]: Inhibition of SARS-CoV nucleocapsid protein expressed in Escherichia coli BL21 (DE3) incubated for 1 hr by quantum dots-conjugated oligonucleotide biochip-platform based confocal laser scanning microscopic analysis. Also on record: species or system Severe acute respiratory syndrome-related coronavirus.
Series [13] can be described thus: Inhibition of SARS-CoV wild type NSP13 helicase using Cy3-labeled 31/18-mer as substrate measured after 10 min by FRET-based assay. Also noted: species or system Severe acute respiratory syndrome-related coronavirus.
Series [14] can be described thus: Inhibition of SARS-CoV NSP13 helicase using fluorescein and black hole quencher labelled dsDNA as substrate measured after 10 min by FRET-based assay. Also noted: species or system Severe acute respiratory syndrome-related coronavirus.
Series [15] is described as follows: Inhibition of envelope protein in Murine hepatitis virus A59 infected in mouse L929 cells assessed as reduction in viral replication incubated for 24 hrs by crystal violet staining based plaque reduction assay. The format is cell-based. The note with it: Murine coronavirus, A59, L929, 24 h.
The nature of series [16]: Inhibition of envelope protein in HCoV-229E infected in human MRC-5 cells assessed as reduction in viral replication incubated for 6 days by crystal violet staining based plaque reduction assay. It counts as cell-based. The following applies: Human coronavirus 229E, MRC5, 144 h.
Series [17] in a line: Inhibition of SARS-CoV2 3C-like protease (3264 to 3569 residues) expressed in Escherichia coli BL21(DE3) BL21-Gold using Dabcyl-KTSAVLQSGFRKM-E(Edans)-NH2 as substrate preincubated for 10 min followed by substrate addition by FRET assay. Also noted: species or system Severe acute respiratory syndrome coronavirus 2.
Series [18] in a line: Inhibition of SARS-CoV 3C-like protease by FRET assay. Also noted: species or system Severe acute respiratory syndrome-related coronavirus.
Series [19] is described as follows: Inhibition of MERS-CoV 3C-like protease. Also on record: species or system Middle East respiratory syndrome-related coronavirus.
Series [20] in a line: Inhibition of SARS-CoV 3C-like protease expressed in Escherichia coli BL21(DE3) using DABCYL-KTSAVLQSGFRKME-EDANS as substrate preincubated for 1 hr followed by substrate addition and measured after 16 hrs by fluorescence method. Also on record: species or system Severe acute respiratory syndrome-related coronavirus.
Series [21] is described as follows: Inhibition of SARS-CoV(BJ-01) 3C-like protease infected in African green monkey Vero cells assessed as reduction in viral titer incubated for 48 hrs by crystal violet staining based plaque reduction assay. The format is cell-based. The following applies: Severe acute respiratory syndrome-related coronavirus, BJ-01, Vero.
Series [22] is described as follows: Inhibition of His-tagged SARS-CoV HKU39849 3C-like protease expressed in Escherichia coli BL21 assessed as reduction in cleavage activity using H2N-TSAVLQSGFRKW-COOH as substrate preincubated for 30 mins followed by substrate addition by HPLC-based assay. Also on record: species or system Severe acute respiratory syndrome-related coronavirus.
Series [23] can be described thus: Inhibition of SARS-CoV 3C-like protease using abz-SVTLQSG-Tyr(NO2)R as substrate by spectrofluorimetric assay. Also noted: species or system Severe acute respiratory syndrome-related coronavirus.
The nature of series [24]: Inhibition of SARS-CoV papain-like protease using Ub-7-amino-4-trifluoro-methylcoumarin as substrate incubated for 3 mins by fluorescence method. Also noted: species or system Severe acute respiratory syndrome-related coronavirus.
A short description of series [25]: Inhibition of MERS-CoV papain-like protease using Ub-7-amino-4-trifluoro-methylcoumarin as substrate incubated for 3 mins by fluorescence method. Also noted: species or system Middle East respiratory syndrome-related coronavirus.
Series [26] is described as follows: Inhibition of SARS-CoV spike protein expressed in Escherichia coli BL21(DE3)pLysS/human ACE2 using 2,2'-azinobis(3-ethylbenzthiazoline-sulfonic acid) at 10 nmol preincubated for 2 hrs with biotinylated S protein followed by incubation with ACE2 for 1 hr and subsequent substrate addition by competitive biotinylated ELISA relative to control. The following applies: time 3.0 hrs.

Series [27] is described as follows: Inhibition of SARS-CoV spike protein expressed in Escherichia coli BL21(DE3)pLysS/human ACE2 using 2,2'-azinobis(3-ethylbenzthiazoline-sulfonic acid) preincubated for 2 hrs with biotinylated S protein followed by incubation with ACE2 for 1 hr and subsequent substrate addition by competitive biotinylated ELISA.
Series [28] is described as follows: Inhibition of HcoV-EMC 3C-like protease. Also on record: species or system unidentified human coronavirus.
Series [29] can be described thus: Inhibition of 3C-like protease in SARS-CoV2 infected in African green monkey vero cells assessed as antiviral activity incubated for 1 hr by crystal violet staining based plaque reduction assay. The format is cell-based. The note with it: Severe acute respiratory syndrome coronavirus 2, Vero.
Series [30] is described as follows: Inhibition of SARS-CoV C-terminal (GPH6 residues)-fused wild type 3C-like protease expressed in Escherichia coli BL21(DE3) cells using MCA-AVLQSGFR-Lys(Dnp)-Lys-NH2 s substrate by fluorescence method. Also noted: species or system Severe acute respiratory syndrome-related coronavirus.
The nature of series [31]: Inhibition of SARS-CoV wild type 3C-like protease using MCA-AVLQSGFR-Lys(Dnp)-Lys-NH2 s substrate by fluorescence method. Also on record: species or system Severe acute respiratory syndrome-related coronavirus.
Series [32] in a line: Inhibition of SARS-CoV C-terminal 6His-tagged papain-like protease expressed in Escherichia coli BL21(DE3) using ubiquitin-AMC as substrate preincubated for 10 mins followed by substrate addition by luminescence spectrometric method. Also noted: species or system Severe acute respiratory syndrome-related coronavirus.

Converted amounts (≈) assume the structure as drawn.

T1 sequence (O43148 whole entry): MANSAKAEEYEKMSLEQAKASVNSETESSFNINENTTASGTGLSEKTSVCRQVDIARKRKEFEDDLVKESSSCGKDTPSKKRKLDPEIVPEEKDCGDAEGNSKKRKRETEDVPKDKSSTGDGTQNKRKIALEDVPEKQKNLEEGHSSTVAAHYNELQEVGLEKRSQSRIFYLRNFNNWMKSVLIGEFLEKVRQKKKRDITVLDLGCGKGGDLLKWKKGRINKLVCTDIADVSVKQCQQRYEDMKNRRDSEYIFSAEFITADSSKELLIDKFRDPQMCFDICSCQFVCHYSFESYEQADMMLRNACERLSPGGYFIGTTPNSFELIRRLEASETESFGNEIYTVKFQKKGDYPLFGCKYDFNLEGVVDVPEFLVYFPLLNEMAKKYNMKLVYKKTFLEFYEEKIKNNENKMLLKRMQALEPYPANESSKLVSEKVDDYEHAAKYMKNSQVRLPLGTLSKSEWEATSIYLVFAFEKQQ

As for `Cc1ncc(CO)c(C23OC4(O)CC(O)(CC(O)(C4)O2)O3)c1O`, the IC50 in series [1] is 3000 nM.

`C=C(C)C(Cc1c(OC)ccc(C(=O)/C=C/c2ccc(O)cc2)c1O)C(=O)O` (stereo not drawn): the IC50 was 1200 nM in [2] and 11400 nM in [3].

With `Nc1ncnc2c1ncn2[C@@H]1O[C@H](C[C@@H](N)CC[C@H](N)C(=O)O)[C@@H](O)[C@H]1O` [SINEFUNGIN], the IC50 in series [4] is 0.55 nM; in series [5], less than 50 nM. Further, the selectivity ratio in [6] is 0.32; in series [7], less than 2.63.

Turning to `Sc1nnc(NNc2ccc(I)cc2)n1NC1C=CCC1` (stereo not drawn), in series [8], half-maximal inhibition (IC50) required 2500 nM.

With `O=C[C@H](C[C@@H]1CCNC1=O)NC(=O)[C@H](Cc1ccccc1)NC(=O)/C=C/c1ccc(Cl)cc1F`, the IC50 in series [9] was 1700 nM; in series [10], 200 nM.

Take `O=C(Oc1cncc(Cl)c1)c1cccs1`: inhibition in series [11] was half-maximal at 500 nM (IC50).

`O=C(O[C@@H]1Cc2c(O)cc(O)cc2O[C@H]1c1ccc(O)c(O)c1)c1cc(O)c(O)c(O)c1` [(-)-CATECHINGALLATE] returned an IC50 in series [12] of 5 ng/mL (≈ 0.0113 µM).

On to `C=CCn1c(S)nnc1CSc1ccccc1[N+](=O)[O-]`, for which the IC50 in series [13] was 5900 nM; in [14] it was 6000 nM.

On to `N=C(N)NC(=O)c1nc(Cl)c(N2CCCCCC2)nc1N` [N,N-HEXAMETHYLENEAMILORIDE], for which the EC50 came out at 3910 nM in [15] and 1340 nM in series [16].

Regarding `CC(C)(C)OC(=O)Nc1cccn([C@@H](CC2CC2)C(=O)N[C@@H](C[C@@H]2CCCC2=O)C(=O)C(=O)NCc2ccccc2)c1=O`, the IC50 in [17] came out at 670 nM; in series [18] it was 900 nM; in [19], 580 nM.

For the molecule `O=C(O[C@@H]1Cc2c(O)cc(O)cc2O[C@H]1c1cc(O)c(O)c(O)c1)c1cc(O)c(O)c(O)c1` [GALLOCATECHIN GALLATE], the IC50 in series [12] is 5 ng/mL (≈ 0.0109 µM).

For the molecule `C[C@@H]1O[C@@H](O[C@H]2[C@@H](Oc3cc(O)c4c(=O)cc(-c5ccc(O)cc5)oc4c3)O[C@H](CO)[C@@H](O)[C@@H]2O)[C@H](O)[C@H](O)[C@H]1O`, in series [20], the IC50 stood at 27500 nM.

`CC1=C(C(=O)OCCc2ccccc2)C(c2ccccc2[N+](=O)[O-])C2=C(CCCC2=O)N1` (stereo not drawn): the IC50 came to 8900 nM in [21] and 2500 nM in [22].

For the molecule `O=C(Cc1cncc(Br)c1)c1ccc(-c2ccc(Cl)cc2)o1`, the IC50 in series [23] turned out to be 13000 nM.

Consider `CCN(CC)C(=S)SSC(=S)N(CC)CC`, for which the figures for the IC50 in series [24] and in series [25] were 14200 nM and 22700 nM, respectively.

With H-SQKSIVAYTM-NH2, in series [26], the inhibition worked out at 90%. For the same molecule, the IC50 in [27] came to 1.8 nM.

As for `Cc1cc(C(=O)N[C@@H](C)C(=O)N[C@H](C(=O)N[C@@H](CC(C)C)C(=O)N[C@H](/C=C/C(=O)OCc2ccccc2)C[C@@H]2CCNC2=O)C(C)C)no1`, the IC50 in series [28] was 280 nM. Also, the EC50 in series [29] was found to be 16800 nM. For the same molecule, the Ki in [30] stood at 2300 nM; in [31], 1900 nM.

As for `Nc1nc2[nH]cnc2c(=S)[nH]1` [THIOGUANINE], it took 5000 nM to reach half-maximal inhibition in [32] (IC50).

Source of the values: ChEMBL document CHEMBL4715856 (Bioorg Med Chem, 2020).
